Experimental data from BindingDB's records for doi:10.1124/jpet.102.047092 (Case Western Reserve University, 2003).

Experiments:
[1] = target: Histamine H4 receptor (Homo sapiens, UniProt Q9H3N8)
[2] = target: Histamine H1 receptor (Homo sapiens, UniProt P35367)
[3] = target: Histamine H2 receptor (Homo sapiens, UniProt P25021)
[4] = target: Cannabinoid receptor 1 (Rattus norvegicus, UniProt P20272)
[5] = target: Neuronal acetylcholine receptor subunit alpha-4 (Homo sapiens, UniProt P43681)
[6] = target: Neuronal acetylcholine receptor subunit alpha-4 (Rattus norvegicus, UniProt P09483)
[7] = target: Beta-1 adrenergic receptor (Rattus norvegicus, UniProt P18090)
[8] = target: Metabotropic glutamate receptor 5 (Rattus norvegicus, UniProt P31424)
[9] = target: Metabotropic glutamate receptor 4 (Rattus norvegicus, UniProt P31423)
Metabotropic glutamate receptor 4, sequence (P31423 whole entry): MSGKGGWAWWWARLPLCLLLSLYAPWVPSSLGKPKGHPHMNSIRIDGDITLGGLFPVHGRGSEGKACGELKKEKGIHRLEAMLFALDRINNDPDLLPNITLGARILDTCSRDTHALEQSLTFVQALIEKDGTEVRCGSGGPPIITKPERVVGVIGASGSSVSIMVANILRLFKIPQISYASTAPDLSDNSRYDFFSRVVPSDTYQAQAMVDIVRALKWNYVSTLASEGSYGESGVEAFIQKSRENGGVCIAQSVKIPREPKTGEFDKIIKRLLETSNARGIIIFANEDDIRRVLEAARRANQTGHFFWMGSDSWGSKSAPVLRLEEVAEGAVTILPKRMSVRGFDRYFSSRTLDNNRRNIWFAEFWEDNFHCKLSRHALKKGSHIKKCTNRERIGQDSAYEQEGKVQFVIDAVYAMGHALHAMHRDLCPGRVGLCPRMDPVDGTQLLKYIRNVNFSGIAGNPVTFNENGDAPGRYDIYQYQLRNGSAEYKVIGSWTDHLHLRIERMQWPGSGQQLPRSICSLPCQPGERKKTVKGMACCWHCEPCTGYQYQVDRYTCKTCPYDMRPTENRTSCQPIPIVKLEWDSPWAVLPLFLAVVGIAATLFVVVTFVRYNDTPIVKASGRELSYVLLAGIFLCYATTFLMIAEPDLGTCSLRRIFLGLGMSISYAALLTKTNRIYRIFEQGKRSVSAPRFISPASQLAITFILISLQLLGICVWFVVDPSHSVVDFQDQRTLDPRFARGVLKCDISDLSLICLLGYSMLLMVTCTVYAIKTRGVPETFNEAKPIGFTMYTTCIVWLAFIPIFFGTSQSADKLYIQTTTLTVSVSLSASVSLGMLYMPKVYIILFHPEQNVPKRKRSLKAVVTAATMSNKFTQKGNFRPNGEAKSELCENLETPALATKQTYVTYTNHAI

[10] = target: Metabotropic glutamate receptor 8 (Rattus norvegicus, UniProt P70579)
Metabotropic glutamate receptor 8, sequence (P70579 whole entry): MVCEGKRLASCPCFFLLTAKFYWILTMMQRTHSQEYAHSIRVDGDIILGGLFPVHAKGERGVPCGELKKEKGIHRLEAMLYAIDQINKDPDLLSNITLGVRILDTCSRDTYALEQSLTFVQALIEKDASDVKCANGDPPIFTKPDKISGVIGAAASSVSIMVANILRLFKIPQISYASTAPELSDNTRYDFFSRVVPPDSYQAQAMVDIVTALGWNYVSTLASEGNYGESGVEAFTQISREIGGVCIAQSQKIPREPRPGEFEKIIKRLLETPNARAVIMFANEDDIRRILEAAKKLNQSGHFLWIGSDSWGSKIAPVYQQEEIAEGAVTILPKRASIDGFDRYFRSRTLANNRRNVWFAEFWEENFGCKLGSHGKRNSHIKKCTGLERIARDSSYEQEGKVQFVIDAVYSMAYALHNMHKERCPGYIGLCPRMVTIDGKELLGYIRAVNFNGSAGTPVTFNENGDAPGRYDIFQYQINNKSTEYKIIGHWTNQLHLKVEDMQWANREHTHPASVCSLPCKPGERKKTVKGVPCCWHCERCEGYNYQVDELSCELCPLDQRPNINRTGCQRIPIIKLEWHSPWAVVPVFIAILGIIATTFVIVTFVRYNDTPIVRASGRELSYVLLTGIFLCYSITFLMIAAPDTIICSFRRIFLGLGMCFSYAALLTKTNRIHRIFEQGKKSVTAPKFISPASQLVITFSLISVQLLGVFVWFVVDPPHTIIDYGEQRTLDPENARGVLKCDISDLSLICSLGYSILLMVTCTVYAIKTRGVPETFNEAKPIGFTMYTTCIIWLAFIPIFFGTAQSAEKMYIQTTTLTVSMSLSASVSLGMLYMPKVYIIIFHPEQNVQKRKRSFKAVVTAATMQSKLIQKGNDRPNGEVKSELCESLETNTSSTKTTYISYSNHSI

[11] = target: Metabotropic glutamate receptor 6 (Rattus norvegicus, UniProt P35349)
Metabotropic glutamate receptor 6, sequence (P35349 whole entry): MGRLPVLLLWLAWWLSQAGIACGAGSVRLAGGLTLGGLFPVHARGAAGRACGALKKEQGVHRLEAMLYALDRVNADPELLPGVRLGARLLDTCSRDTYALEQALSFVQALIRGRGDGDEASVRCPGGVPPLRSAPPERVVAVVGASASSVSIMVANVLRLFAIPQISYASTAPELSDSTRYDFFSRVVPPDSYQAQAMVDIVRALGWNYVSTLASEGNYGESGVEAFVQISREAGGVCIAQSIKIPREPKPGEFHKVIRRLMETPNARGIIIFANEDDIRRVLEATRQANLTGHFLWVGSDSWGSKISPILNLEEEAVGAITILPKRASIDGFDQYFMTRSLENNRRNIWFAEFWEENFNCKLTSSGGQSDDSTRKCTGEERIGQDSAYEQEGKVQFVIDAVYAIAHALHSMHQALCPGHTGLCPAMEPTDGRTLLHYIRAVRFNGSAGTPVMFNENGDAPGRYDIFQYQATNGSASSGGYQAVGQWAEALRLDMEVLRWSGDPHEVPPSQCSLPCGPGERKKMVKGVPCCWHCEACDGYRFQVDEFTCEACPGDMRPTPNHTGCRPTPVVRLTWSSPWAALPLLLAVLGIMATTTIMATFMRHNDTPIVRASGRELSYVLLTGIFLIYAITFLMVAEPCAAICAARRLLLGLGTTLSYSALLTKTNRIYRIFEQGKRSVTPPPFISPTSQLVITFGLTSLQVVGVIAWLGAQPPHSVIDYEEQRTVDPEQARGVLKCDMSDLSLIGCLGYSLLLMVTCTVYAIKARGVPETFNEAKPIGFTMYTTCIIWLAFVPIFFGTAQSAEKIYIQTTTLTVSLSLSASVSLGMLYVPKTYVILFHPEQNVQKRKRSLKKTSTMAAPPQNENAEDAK

[12] = target: Metabotropic glutamate receptor 2 (Rattus norvegicus) (UniProt P31421)
Metabotropic glutamate receptor 2 (Rattus norvegicus), sequence (P31421 whole entry, looked up): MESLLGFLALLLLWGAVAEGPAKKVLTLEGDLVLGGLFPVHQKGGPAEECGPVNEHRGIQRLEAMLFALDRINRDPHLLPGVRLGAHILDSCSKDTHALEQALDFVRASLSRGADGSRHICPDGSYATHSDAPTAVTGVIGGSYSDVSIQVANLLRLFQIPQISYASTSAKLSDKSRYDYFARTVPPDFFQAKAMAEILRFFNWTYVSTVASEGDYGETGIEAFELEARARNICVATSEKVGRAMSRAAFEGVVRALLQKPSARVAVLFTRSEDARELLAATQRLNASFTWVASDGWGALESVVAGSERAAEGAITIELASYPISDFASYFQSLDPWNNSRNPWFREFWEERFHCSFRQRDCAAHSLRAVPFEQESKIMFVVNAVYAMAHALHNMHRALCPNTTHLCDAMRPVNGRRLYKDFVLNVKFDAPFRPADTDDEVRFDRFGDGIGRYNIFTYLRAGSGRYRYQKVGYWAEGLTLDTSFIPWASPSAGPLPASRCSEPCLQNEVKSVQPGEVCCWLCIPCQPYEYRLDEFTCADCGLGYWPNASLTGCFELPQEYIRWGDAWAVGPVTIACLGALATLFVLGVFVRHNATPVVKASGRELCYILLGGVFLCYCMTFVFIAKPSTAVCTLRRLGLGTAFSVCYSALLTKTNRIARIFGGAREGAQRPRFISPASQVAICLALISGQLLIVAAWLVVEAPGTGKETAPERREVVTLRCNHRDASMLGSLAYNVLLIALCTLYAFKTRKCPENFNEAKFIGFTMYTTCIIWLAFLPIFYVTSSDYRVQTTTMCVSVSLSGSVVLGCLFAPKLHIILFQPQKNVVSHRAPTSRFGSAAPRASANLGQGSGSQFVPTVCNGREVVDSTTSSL

[13] = target: Voltage-dependent L-type calcium channel subunit alpha-1C (Rattus norvegicus, UniProt P22002)
[14] = target: Neuronal acetylcholine receptor subunit alpha-2 (Homo sapiens, UniProt Q15822)
[15] = target: Neuronal acetylcholine receptor subunit alpha-3 (Homo sapiens, UniProt P32297)
Neuronal acetylcholine receptor subunit alpha-3, sequence (P32297 whole entry): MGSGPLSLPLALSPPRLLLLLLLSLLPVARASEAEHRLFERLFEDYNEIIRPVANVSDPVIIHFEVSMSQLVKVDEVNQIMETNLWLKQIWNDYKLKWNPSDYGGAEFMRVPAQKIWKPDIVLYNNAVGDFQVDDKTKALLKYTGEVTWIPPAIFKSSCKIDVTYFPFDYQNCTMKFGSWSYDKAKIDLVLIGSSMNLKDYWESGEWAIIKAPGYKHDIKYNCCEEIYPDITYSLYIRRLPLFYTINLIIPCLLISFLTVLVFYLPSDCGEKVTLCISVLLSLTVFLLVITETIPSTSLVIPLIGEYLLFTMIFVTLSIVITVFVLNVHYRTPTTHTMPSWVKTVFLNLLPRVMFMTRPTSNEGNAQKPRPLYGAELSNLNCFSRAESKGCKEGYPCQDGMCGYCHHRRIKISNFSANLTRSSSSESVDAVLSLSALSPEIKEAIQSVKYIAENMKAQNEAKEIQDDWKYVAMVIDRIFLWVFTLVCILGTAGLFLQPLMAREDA

[16] = target: Nischarin (Rattus norvegicus, UniProt Q4G017)
[17] = target: Metabotropic glutamate receptor 1 (Rattus norvegicus, UniProt P23385)

Histamine H4 receptor, sequence (Q9H3N8 whole entry): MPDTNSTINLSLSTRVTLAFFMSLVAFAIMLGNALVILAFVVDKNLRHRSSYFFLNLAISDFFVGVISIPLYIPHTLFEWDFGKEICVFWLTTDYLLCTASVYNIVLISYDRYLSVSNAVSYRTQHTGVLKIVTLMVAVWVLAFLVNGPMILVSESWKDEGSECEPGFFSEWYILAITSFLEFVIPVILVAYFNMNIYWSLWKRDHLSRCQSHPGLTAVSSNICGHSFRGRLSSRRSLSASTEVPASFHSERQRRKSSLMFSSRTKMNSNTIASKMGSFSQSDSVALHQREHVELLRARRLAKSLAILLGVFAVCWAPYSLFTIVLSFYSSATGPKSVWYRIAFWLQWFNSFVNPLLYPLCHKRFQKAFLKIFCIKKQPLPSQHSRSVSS
Cannabinoid receptor 1, sequence (P20272 whole entry): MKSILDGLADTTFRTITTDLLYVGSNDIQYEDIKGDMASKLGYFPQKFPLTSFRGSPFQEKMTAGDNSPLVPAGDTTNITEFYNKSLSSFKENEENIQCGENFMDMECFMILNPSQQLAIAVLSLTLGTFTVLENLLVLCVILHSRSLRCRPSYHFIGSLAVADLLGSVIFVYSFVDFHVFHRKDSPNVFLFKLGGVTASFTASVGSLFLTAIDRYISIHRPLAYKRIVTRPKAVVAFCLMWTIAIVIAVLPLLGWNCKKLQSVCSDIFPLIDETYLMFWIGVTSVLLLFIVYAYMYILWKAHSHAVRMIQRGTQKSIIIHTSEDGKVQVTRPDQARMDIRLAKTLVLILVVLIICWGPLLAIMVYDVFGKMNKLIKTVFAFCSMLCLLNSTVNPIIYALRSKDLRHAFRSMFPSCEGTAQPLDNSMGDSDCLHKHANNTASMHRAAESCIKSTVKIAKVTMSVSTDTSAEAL

`N[C@@H](CCS(=O)(=O)O)C(=O)O` [L-homocysteic acid] was tested, and the Ki [1] was greater than 10 µM, the Ki [2] was greater than 10 µM and the Ki [3] was greater than 10 µM. It also gave a Ki [4] greater than 10 µM, a Ki [5] greater than 10 µM and a Ki [6] greater than 10 µM. It also gave a Ki [7] greater than 10 µM, an EC50 [8] of 6.31 µM and an EC50 [9] greater than 10 µM. The EC50 [10] was greater than 10 µM, the EC50 [11] was 7.94 µM and the EC50 [12] was greater than 10 µM. It also gave a Ki [13] greater than 10 µM, a Ki [14] greater than 10 µM and a Ki [15] greater than 10 µM. It also gave a Ki [16] greater than 10 µM and an EC50 [17] greater than 10 µM.

With `N[C@@H](CCP(=O)(O)O)C(=O)O` the EC50 [10] was 1.26 µM and the EC50 [11] was 0.398 µM.
